From paper PMC3673896, “3,4-dihydroxyphenyl acetic acid and (+)-epoxydon isolated from marine algae-derived microorganisms induce down regulation of epidermal growth factor activated mitogenic signaling cascade in Hela cells” (Cancer Cell International, 2013)

Molecular target: EGF receptor tyrosine kinase (EGFR) (Homo sapiens, UniProt P00533)
Test: AlphaScreen P-Tyr-100 kinase assay with poly[Glu:Tyr] ([…]) substrate
Format: biochemical

Chain of EGF receptor tyrosine kinase (EGFR) (P00533 669-1210 limits assumed): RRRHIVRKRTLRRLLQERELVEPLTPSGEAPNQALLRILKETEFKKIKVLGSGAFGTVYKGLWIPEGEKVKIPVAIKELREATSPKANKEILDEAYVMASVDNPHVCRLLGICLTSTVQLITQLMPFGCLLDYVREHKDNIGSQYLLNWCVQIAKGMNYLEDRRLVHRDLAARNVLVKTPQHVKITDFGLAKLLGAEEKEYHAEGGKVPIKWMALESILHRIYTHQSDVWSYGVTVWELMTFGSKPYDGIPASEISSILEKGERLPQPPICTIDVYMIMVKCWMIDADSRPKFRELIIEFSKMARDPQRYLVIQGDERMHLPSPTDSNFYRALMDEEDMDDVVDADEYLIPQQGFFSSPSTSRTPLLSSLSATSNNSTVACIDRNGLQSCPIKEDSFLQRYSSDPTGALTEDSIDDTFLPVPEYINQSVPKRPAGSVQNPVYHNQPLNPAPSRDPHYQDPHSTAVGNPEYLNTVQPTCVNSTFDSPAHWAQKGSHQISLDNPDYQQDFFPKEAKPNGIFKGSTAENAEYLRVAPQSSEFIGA

O=C(O)Cc1ccc(O)c(O)c1 [3,4-dihydroxyphenyl acetic acid]
IC50: 16.7 µM

O=C1C(CO)=C[C@@H](O)[C@H]2O[C@@H]12 [(+)-epoxydon]
IC50: 3.84 µM
